According to patent US6806230B1, “Pyrimidine derivatives and herbicides containing them” (Kumiai Chemical Industry Co., Ltd., priority 1999, dated 2004):

How the values were obtained:
Format in all cases: in vivo
monochoria (Mo) [1] = test: Test Example 1: herbicidal effects by flooded paddy field treatment; design: herbicidal effects, Mo (monochoria):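 0-5 growth inhibition grade; 5 = over 90%; 4 = 70-90%; 3 = 50-70%; 2 = 30-50%; 1 = 10-30%; 0 = under 10%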; details: for Herbicidal effect index, Mo: dose 100 gai/10a, examined on 21st day after treatment, index 0-5 per Table 44; for herbicidal effects, Mo (monochoria): dose 100 g active ingredient per 10 ares, examined on the 21st day after treatment, standards of Table 44;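 on Herbicidal effect index, Mo: 0-5 growth inhibition grade; 5 = over 90%; 4 = 70-90%; 3 = 50-70%; 2 = 30-50%; 1 = 10-30%; 0 = under 10%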
Summary of the method: (§1)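 Flooded paddy pre-emergence test: sowing into puddled soil under 3 cm water, then dropwise water-surface treatment the following day with diluted wettable powder at 100 g active ingredient per 10 ares. Greenhouse cultivation followed, and weeds were rated against a standard scale at 21 days.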

barnyard grass (Eo) [2] = test: Test Example 4: selectivity for a crop plant by flooded paddy field treatment; design: scale not given here; details: for Eo (herbicidal effects, index): dose 25 g active ingredient per 10 ares, examined on the 21st day after treatment; for Eo (herbicidal effect index): barnyard grass, dose 25 gai/10a, 21st day after treatment, index per Table 44
Summary of the method: (§2)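 Steps: fill pot with paddy soil and puddle; sow weed seeds; transplant rice at second-leaf stage; flood to 3 cm. Next day, drip the water-diluted wettable powder onto the water (25 g a.i./10 ares). Grow in greenhouse and rate herbicidal effect on day 21.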

rice (Or) = test: as above; design: scale not given here; details: rice transplanted at second leaf stage; for Or (effect on crop plant rice, index): dose 25 g active ingredient per 10 ares, examined on the 21st day after treatment; for Or (herbicidal effect index on crop): dose 25 gai/10a, 21st day after treatment, index per Table 44
Summary of the method: as §2

monochoria (Mo) [3] = test: as above; design: scale not given here; details: for Mo (herbicidal effects, index): dose 25 g active ingredient per 10 ares, examined on the 21st day after treatment; for Mo (herbicidal effect index): monochoria, dose 25 gai/10a, 21st day after treatment, index per Table 44
Summary of the method: as §2

barnyard grass (Ec) = test: Test Example 2: herbicidal effects by upland soil treatment; design: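 0-5 growth inhibition grade; 5 = over 90%; 4 = 70-90%; 3 = 50-70%; 2 = 30-50%; 1 = 10-30%; 0 = under 10%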; details: dose 100 g active ingredient per 10 ares, examined on the 21st day after treatment, standards of Table 44
Summary of the method: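 Pre-emergence test: barnyard grass and green foxtail sown in upland soil, then soil surface sprayed with wettable-powder formulation at 100 g active ingredient per 10 ares (100 l per 10 ares). Grown in greenhouse; herbicidal effect scored on a rating scale 21 days after treatment.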

green foxtail (Se) = test: as above; details: dose 100 g active ingredient per 10 ares, examined on the 21st day after treatment, standards of Table 44;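 further: 0-5 growth inhibition grade; 5 = over 90%; 4 = 70-90%; 3 = 50-70%; 2 = 30-50%; 1 = 10-30%; 0 = under 10%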
Method: In a 80 cm^2 plastic pot, upland soil was filled, and seeds of barnyard grass (Ec) and green foxtail (Se) were sown and covered with soil. A wettable powder prepared in accordance with Formulation Example 1 was diluted with water and uniformly applied to the soil surface by means of a small size spray at a rate of 100 l per 10 ares, so that the dose of the active ingredient would be 100 g per 10 ares. Thereafter, cultivation was carried out in a green house, and on the 21st day after the treatment, the herbicidal effects were examined in accordance with the standards as identified in Table 44.

barnyard grass (Eo) [4] = test: Test Example 1: herbicidal effects by flooded paddy field treatment; design: herbicidal effects, Eo (barnyard grass):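 0-5 growth inhibition grade; 5 = over 90%; 4 = 70-90%; 3 = 50-70%; 2 = 30-50%; 1 = 10-30%; 0 = under 10%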; details: for Herbicidal effect index, Eo: dose 100 gai/10a, examined on 21st day after treatment, index 0-5 per Table 44; for herbicidal effects, Eo (barnyard grass): dose 100 g active ingredient per 10 ares, examined on the 21st day after treatment, standards of Table 44;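 on Herbicidal effect index, Eo: 0-5 growth inhibition grade; 5 = over 90%; 4 = 70-90%; 3 = 50-70%; 2 = 30-50%; 1 = 10-30%; 0 = under 10%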
Summary of the method: as §1

Structure (SMILES)	Herbicidal effect index, Mo (monochoria (Mo) [1])	Eo (herbicidal effects, index) (barnyard grass (Eo) [2])	Or (effect on crop plant rice, index) (rice (Or))	Mo (herbicidal effects, index) (monochoria (Mo) [3])	herbicidal effects, Ec (barnyard grass) (barnyard grass (Ec))	herbicidal effects, Se (green foxtail) (green foxtail (Se))	Herbicidal effect index, Eo (barnyard grass (Eo) [4])	Eo (herbicidal effect index) (barnyard grass (Eo) [2])	Or (herbicidal effect index on crop) (rice (Or))	Mo (herbicidal effect index) (monochoria (Mo) [3])	herbicidal effects, Mo (monochoria) (monochoria (Mo) [1])	herbicidal effects, Eo (barnyard grass) (barnyard grass (Eo) [4])
CCc1ccc(CC(=O)N(C)C(c2cncnc2C(F)(F)F)C(C)C)cc1 (racemic) [Compound 1-67]	5	5	1	5	5	5	5	–	–	–	–	–
Cc1ccc(CC(=O)N(C)C(c2cncnc2C(F)(F)F)C(C)C)cc1C (racemic) [Compound 1-72]	5	5	0	5	5	4	5	–	–	–	–	–
CC(C)C(c1cncnc1C(F)(F)F)N(C)C(=O)Cc1cccc([N+](=O)[O-])c1 (racemic) [Compound 1-74]	5	5	0	5	5	5	5	–	–	–	–	–
CN(C(=O)Cc1ccccc1)C(c1cncnc1C(F)(F)Cl)C1CC1 (racemic) [Compound 1-91]	5	5	1	5	4	5	5	–	–	–	–	–
CC(C)C(c1cncnc1C(F)(F)F)N(C(=O)Cc1ccccc1)C(C)C (racemic) [Compound 1-103]	5	–	–	–	5	5	5	5	1	5	–	–
COCN(C(=O)Cc1ccc(C)cc1)C(c1cncnc1C(F)(F)F)C(C)C (racemic) [Compound 1-106]	5	–	–	–	5	4	5	5	0	5	–	–
CC(C)C(c1cncnc1C(F)(F)F)N(C)C(=O)OCc1ccccc1 (racemic) [Compound 1-118]	5	–	–	–	5	5	5	5	0	3	–	–
Cc1cc(CC(=O)N(C)C(c2cncnc2C(F)(F)F)C(C)C)ccc1Cl (racemic) [Compound 1-120]	5	–	–	–	5	4	5	5	0	5	–	–
Cc1ccc(CC(=O)N(C)C(c2cncnc2C(F)(F)F)C(C)C)cc1Cl (racemic) [Compound 1-121]	5	–	–	–	5	4	5	5	1	5	–	–
CC(C)C(c1cncnc1C(F)(F)F)N(C)C(=O)Cc1c(F)cccc1F (racemic) [Compound 1-123]	5	–	–	–	5	5	5	5	1	5	–	–
CC(C)C(c1cncnc1C(F)(F)F)N(C)C(=O)Cc1ccc(Cl)cc1Cl (racemic) [Compound 1-124]	5	–	–	–	5	5	5	5	0	5	–	–
CC(C)C(c1cncnc1C(F)(F)F)N(C)C(=O)COc1ccccc1F (racemic) [Compound 1-125]	5	–	–	–	5	5	5	5	0	5	–	–
CC(C)C(c1cncnc1C(F)(F)F)N(C)C(=O)COc1cccc(F)c1 (racemic) [Compound 1-126]	5	–	–	–	5	5	5	5	1	5	–	–
CC(C)c1ncncc1C(C(C)C)N(C)C(=O)Cc1ccc(Cl)cc1 (racemic) [Compound 1-130]	–	–	–	–	5	5	–	5	1	5	5	5
Cc1ccc(CC(=O)N(C)C(c2cncnc2C(C)C)C(C)C)cc1 (racemic) [Compound 1-131]	–	–	–	–	5	5	–	5	1	5	5	5
Cc1ccccc1OCC(=O)N(C)C(c1cncnc1C(F)(F)F)C(C)C (racemic) [Compound 1-134]	–	–	–	–	5	5	–	5	0	5	5	5
Cc1cccc(OCC(=O)N(C)C(c2cncnc2C(F)(F)F)C(C)C)c1 (racemic) [Compound 1-135]	–	–	–	–	5	5	–	5	1	5	5	5
Cc1ccc(OCC(=O)N(C)C(c2cncnc2C(F)(F)F)C(C)C)cc1 (racemic) [Compound 1-136]	–	–	–	–	5	5	–	5	1	5	5	5
CN(C(=O)Cc1ccc(Cl)cc1)C(c1cncnc1C(F)(F)F)C1CCCC1 (racemic) [Compound 1-139]	–	–	–	–	5	5	–	5	0	5	5	5
CN(C(=O)Cc1ccc(Br)cc1)C(c1cncnc1C(F)(F)F)C1CCCC1 (racemic) [Compound 1-140]	–	–	–	–	5	5	–	5	0	5	5	5
Cc1ccc(CC(=O)N(C)C(c2cncnc2C(F)(F)F)C2CCCC2)cc1 (racemic) [Compound 1-141]	–	–	–	–	5	5	–	5	1	5	5	5
Cc1ccc(CC(=S)N(C)C(c2cncnc2C(F)(F)F)C(C)C)cc1 (racemic) [Compound 1-145]	–	–	–	–	5	5	–	5	1	5	5	5
CC(C)C(c1cncnc1C(F)(F)F)N(C)C(=O)Cc1ccc2c(c1)OCO2 (racemic) [Compound 1-146]	–	–	–	–	4	4	–	5	1	5	5	5
